Literature values in patent US20130142871A1, “ORAL DOSAGE FORM OF DEFERASIROX” (Ratiopharm GmbH, priority 2010, published 2013).

Details: see WO 2007/045445, page 2, third paragraph

For `O=C(O)c1ccc(-n2nc(-c3ccccc3O)nc2-c2ccccc2O)cc1` [Deferasirox, 4-[(3Z,5E)-3,5-bis(6-oxo-1-cyclohexa-2,4-dienylidene)-1,2,4-triazolidine-1-yl]benzoic acid], the solubility in water is listed as “poorly soluble in water”.
